Patent publication US20210292330A1, “PYRROLIDINE-FUSED HETEROCYCLES” (Erasca, Inc., priority 2020, published 2021)

Molecular target: T1, KRAS 4B G12C protein (Homo sapiens, UniProt P01116, G12C)
T1 construct: This protein contained 188 amino acids in total, including an N-terminal 6-Histidine tag; made in house; host or cells: E. coli BL21
Test: In vitro covalent adduct formation (CAF) assay by LC-MS
Type: binding
Conditions: compound 10 μM, protein 5 μM, 22° C., percentage of protein bound by the compound
Method in brief: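 Percent of protein covalently modified was quantified from intact-mass LC-MS ratios of free versus adducted protein, adducts within 1 Da of expected mass. Reactions: 10 μM compound, 5 μM His-TEV-KRAS 4B G12C (1-169) in TBS pH 7.4, 4% DMSO, 22° C., one hour, run in duplicate.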

SMILES | CAF (10 minutes/60 minutes) at 10 micromolar: 10 minutes | CAF (10 minutes/60 minutes) at 10 micromolar: 60 minutes
C=CC(=O)N1CCN(c2nc(OC[C@@H]3CCCN3C)nc3c2CN(Cc2c(Cl)cccc2OC)C3)C[C@@H]1CO [1-107] | 0% | 3%
C=CC(=O)N1CCN(c2nc(OC[C@@H]3CCCN3C)nc3c2CN(C2CCc4ccccc42)C3)C[C@H]1C(N)=O (stereo partly shown) [1-163] | – | NA/ 55%
C=CC(=O)N1CCN(c2nc(OC[C@@H]3CCCN3C)nc3c2CN(Cc2cc(O)ccc2Cl)C3)C2COCC21 (stereo partly shown) [1-315] | 41% | 66%
C=CC(=O)N1CCN(c2nc(OC[C@@H]3CCCN3C)nc3c2CN(C2CCc4ccccc42)C3)[C@H](C#N)C1 (stereo partly shown) [1-156] | 11% | 29%
C=C(F)C(=O)N1CCN(c2nc(OC[C@@H]3CCCN3C)nc3c2CN(Cc2c(CC)ccc(O)c2C)C3)C[C@@H]1CC#N [1-253] | 93% | 94%
C=CC(=O)N1CCN(c2nc(OC[C@@H]3CCCN3C)nc3c2CN(C2CCc4ccccc42)C3)C[C@@H]1CS(C)(=O)=O (stereo partly shown) [1-200] | 0% | 2%
C=C(F)C(=O)N1CCN(c2nc(OC[C@@H]3CCCN3C)nc3c2CN(Cc2c(Cl)ccc(O)c2C)C3)C[C@@H]1CC#N [1-311] | 93% | 95%
C=CC(=O)N1CCN(c2nc(OC[C@@H]3CCCN3C)nc3c2CN(Cc2ccccc2C(F)(F)F)C3)C[C@@H]1CC#N [1-213] | 94% | 95%
C=CC(=O)N1CCN(c2nc(OC[C@@H]3CCCN3C)nc3c2CN(Cc2cc(F)ccc2Cl)C3)[C@@H](C)C1 [1-34] | 0% | 14%
C=C(F)C(=O)N1CCN(c2nc(OC[C@@H]3CCCN3C)nc3c2CN(Cc2cc(Cl)ccc2C(F)(F)F)C3)C[C@@H]1CC#N [1-222] | 3% | 24%
C=CC(=O)N1CCN(c2nc(OC[C@@H]3CCCN3C)nc3c2CN(C(=O)c2cccc(C(F)F)c2)C3)[C@@H](C)C1 [1-24] | 0%/ 0% | 0%/ 0%
C=C(F)C(=O)N1CCN(c2nc(OC[C@@H]3CCCN3C)nc3c2CN(Cc2cc(O)c(C)cc2C)C3)C[C@@H]1CC#N [1-327] | 0% | 3%
C=CC(=O)N1CCN(c2nc(OC[C@@H]3CCCN3C)nc3c2CN(Cc2c(Cl)cccc2OC(F)F)C3)C[C@@H]1CC#N [1-82] | 94% | 98%
C=C(F)C(=O)N1CCN(c2nc(OC[C@@H]3CCCN3C)nc3c2CN(Cc2nc(N)ccc2Cl)C3)C[C@@H]1CC#N [1-339] | 83% | 92%
C=C(F)C(=O)N1CCN(c2nc(OC[C@@H]3CCCN3C)nc3c2CN(Cc2nc(NC)ccc2Cl)C3)C[C@@H]1CC#N [1-361] | 16% | 61%
C=CC(=O)N1CCN(c2nc(OC[C@@H]3CCCN3C)nc3c2CN(C2CCc4ccccc42)C3)CC1 (stereo partly shown) [1-190] | 6% | 26%
C=CC(=O)N1CCN(c2nc(OC[C@@H]3CCCN3C)nc3c2CN(C(C)c2ccccc2Cl)C3)C[C@@H]1CC#N (stereo partly shown) [1-120] | 57% | 74%

Next, values leading:

CAF (10 minutes/60 minutes) at 10 micromolar: 10 minutes | CAF (10 minutes/60 minutes) at 10 micromolar: 60 minutes | SMILES
21% | 70% | C=CC(=O)N1CCN(c2nc(OC[C@@H]3CCCO3)nc3c2CN(Cc2c(O)cccc2F)C3)C[C@@H]1CC#N [1-95]
97%/ 97% | 97%/ 97% | C=CC(=O)N1CCN(c2nc(OC[C@@H]3CCCN3C)nc3c2CN(Cc2c(Cl)cccc2OC)C3)C[C@@H]1CC#N [1-38]
76% | 91% | C=C(F)C(=O)N1CCN(c2nc(OC[C@@H]3CCCN3C)nc3c2CN(Cc2c(Cl)ccc4nc[nH]c24)C3)C[C@@H]1CC#N [1-320]
0%/ 0% | 0%/ 0% | C=CC(=O)N1CC2CC(=O)CC1CN2c1nc(OC)nc2c1CN(C1CCc3ccccc31)C2 (stereo not shown) [1-250]
0%/ 0% | 0%/ 0% | CN1CCC[C@H]1COc1nc2c(c(N3CCN(C(=O)C45CC4C5)[C@@H](CC#N)C3)n1)CN(C1CCc3ccccc31)C2 (stereo partly shown) [1-316]
78% | 93% | C=CC(=O)N1CCN(c2nc(OC[C@@H]3CCCN3C)nc3c2CN(Cc2cc(F)ccc2Cl)C3)C[C@@H]1CC#N [1-25]
0%/ 0% | 0%/ 0% | C=C(F)C(=O)N1CCN(c2nc(OCc3cncn3C)nc3c2CN(C2CCc4ccccc42)C3)C[C@@H]1CC#N (stereo partly shown) [1-140]
68% | 73% | C=CC(=O)N1CCN(c2nc(OC[C@@H]3CCCN3C)nc3c2CN(Cc2cc(F)ccc2C(C)C)C3)C[C@@H]1CC#N [1-172]
2% | 15% | C=CC(=O)N1CCN(c2nc(Oc3cccc4ccn(C)c34)nc3c2CN(C2CCc4ccccc42)C3)C[C@@H]1CC#N (stereo partly shown) [1-166]
77% | 94% | C=CC(=O)N1CCN(c2nc(OC[C@@H]3CCCN3C)nc3c2CN(Cc2cc(C)ccc2C)C3)C[C@@H]1CC#N [1-70]
95% | 97% | C=CC(=O)N1CCN(c2nc(OC[C@@H]3CCCN3C)nc3c2CN(Cc2ccccc2C(C)C)C3)C[C@@H]1CC#N [1-168]
